Experimental data taken from patent US11078251B2, “T cell receptors (TCR) and uses thereof for the diagnosis and treatment of diabetes” (INSERM (INSTITUT NATIONAL DE LA SANTÉ ET DE LA RECHERCHE …, priority 2015, dated 2021).
No end group written: not given here.

What was measured:
[1] = test system: lytic activity of D222D clone 2 against peptide-pulsed LCL target cells; assay: Cytotoxic mechanism: ZnT8-specific lysis of LCL targets by D222D clone 2 in the presence of inhibitors; format: cell-based, human; conditions: 4 h co-culture; concanamycin A 100 nM, brefeldin A 5 μg/ml, anti-FasL mAb 5 μg/ml
Experimental: FIG. 6. […]; left to right). Live FarRed^+ target cells were counted at the end of the culture and normalized to a fixed amount of beads added to each well. Percent lysis is noted for each dot plot, calculated as 100×(live targets cultured alone)−(live targets in the presence of T cells)/(live targets cultured alone). B. Lysis of LCL targets pulsed with the indicated peptides and cultured with D222D clones at different E/T ratios. Percent lysis was calculated as above and depicted as mean±SEM of two independent experiments with clone 2 and 3, with data depicted in panel (A) used for clone 3. Similar profiles were obtained for clone 1 (not shown). C. ZnT8-specific lysis of peptide-pulsed LCL target cells co-cultured for 4 h with D222D clone 2 without inhibitors (−) or in the presence of concanamycin A (CMA, 100 nM), brefeldin A (BFA, 5 μg/ml), anti-FasL mAb (aFasL, clone NOK-1; 5 μg/ml) or IgG1 isotype control. *p<0.05 by Wilcoxon signed-rank test. Results are mean±SEM of triplicate measurements from one representative experiment out two performed.
LCL pulsed with 10 μM of the indicated peptide, K562-A2/ZnT8 or K562/A2 target cells were labeled with CellTrace FarRed (Life Technologies) and dispensed in 96-well flat-bottom plates at 10^5/well. Different numbers of CFSE-labeled T cells were added and co-cultured for 6-24 h, as indicated. […]

[2] = target: recombinant HLA-A2 molecules (Homo sapiens, UniProt P04439, D140Y/D185E/D98H/E176V/E277Q/G131W/G231S/I119V/I121R/I166T/I218V/N151K/N90K/P208A/P217A/Q86G/Q94H/R138H/R169H); assay: Affinity and stability measurements of recombinant HLA-A2 molecules complexed with peptide; format: binding; conditions: recombinant HLA-A2 complexed with peptide; data not shown
[3] = target: recombinant HLA-A2 molecules (Homo sapiens, UniProt P04439, /I119V/I121R/I166T/I218V/N151K/N90K/P208A/P217A/Q86G/Q94H/R138H/R169H); assay: as above; format: binding

Row | Molecule | inhibition of lytic activity [1] | also measured
1 | C[C@H]1CCC/C=C/[C@@H]2C[C@H](O)C[C@H]2[C@H](O)/C=C/C(=O)O1 [brefeldin A] | not | –
2 | C/C=C/[C@H]1O[C@@](O)([C@@H](C)[C@H](O)[C@H](C)[C@H]2OC(=O)/C(OC)=C/C(C)=C/[C@@H](C)[C@@H](O)[C@@H](CC)[C@@H](O)[C@H](C)C/C(C)=C/C=C/[C@@H]2OC)C[C@@H](O[C@H]2C[C@@H](O)[C@H](OC(N)=O)[C@@H](C)O2)[C@@H]1C [concanamycin A] | completely inhibited | –
3 | AVAANIVLTV [ZnT8185-194] | – | Kd [2]: 207 nM
4 | VAANIVLTV [ZnT8186-194] | – | Kd [3]: 15 nM
